Assay results from US11596639B2, “Substituted indole Mcl-1 inhibitors” (Vanderbilt University, priority 2016, dated 2023).
Read-outs that look alike come from different tables or passages of the source.

Key:
Mcl-1 = Mcl-1 (Homo sapiens (Human), UniProt Q07820); test: Fluorescence polarization anisotropy (FPA) competition assay, FITC-Bak or FITC-Bim BH3 peptide; type: binding; conditions: read-out: Ki for Inhibition of Mcl-1 by FPA assay
[1] = system: H929 human cancer cell lines; test: Cellular viability / proliferation (Cell TiterGlo, 72 h); type: cell-based
Summary of the method: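 Plating is at 1,000 cells/well in 10% FBS medium; after 24 h, compound is added as a 2-fold series starting at 50 μM with under 1% DMSO.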

[2] = Homo sapiens, NCI-H929, 72 h, read-out: GI50 on cellular proliferation of H929 human cancer cell lines, H929 cells, 72 h, Cell TiterGlo, 10% FBS
[3] = read-out: GI50 on cellular proliferation of H929 human cancer cell lines, H929 cells, 72 h, Cell TiterGlo, 10% FBS

Chain of Mcl-1 (Q07820 172-327): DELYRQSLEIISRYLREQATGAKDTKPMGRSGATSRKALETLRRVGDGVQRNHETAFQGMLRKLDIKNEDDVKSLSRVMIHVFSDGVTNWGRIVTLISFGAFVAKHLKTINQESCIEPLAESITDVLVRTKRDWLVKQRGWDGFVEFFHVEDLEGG

With `Cc1cc(OCCCc2c3n(c4c(-c5c(C)nn(C)c5C)c(Cl)ccc24)[C@H](C)CN(c2cccc4cc(C(=O)O)ccc24)C3=O)cc(C)c1Cl` [Example 186, (R)-5-(7-Chloro-10-(3-(4-chloro-3,5-dimethylphenoxy)propyl)-4-methyl-1-oxo-6-(1,3,5-trimethyl-1H-pyrazol-4-yl)-3,4-dihydropyrazino[1,2-a]indol-2(1H)-yl)-2-naphthoic acid] the Ki (Mcl-1) was < 1 nM and the GI50 [1, 2] was < 200 nM.
`Cc1cc(OCCCc2c3n(c4c(-c5c(C)nn(C)c5C)c(Cl)ccc24)[C@H](C)CN(c2cn(C)c4ccc(C(=O)N5CCCC5)cc24)C3=O)cc(C)c1Cl` [Example 290, (4R)-7-chloro-10-[3-(4-chloro-3,5-dimethyl-phenoxy)propyl]-4-methyl-2-[1-methyl-5-(pyrrolidine-1-carbonyl)indol-3-yl]-6-(1,3,5-trimethylpyrazol-4-yl)-3,4-dihydropyrazino[1,2-a]indol-1-one] was tested, and the Ki (Mcl-1) was 12 nM and the GI50 [1, 2] was 5300 nM.
`Cc1cc(OCCCc2c3n(c4c(-c5c(C)nn(C)c5C)c(Cl)ccc24)[C@H](C)CN(c2cc(CN4CCCC4)cc4cc(C(=O)O)n(C)c24)C3=O)cc(C)c1Cl` [Example 401, (R)-7-(7-chloro-10-(3-(4-chloro-3,5-dimethylphenoxy)propyl)-4-methyl-1-oxo-6-(1,3,5-trimethyl-1H-pyrazol-4-yl)-3,4-dihydropyrazino[1,2-a]indol-2(1H)-yl)-1-methyl-5-(pyrrolidin-1-ylmethyl)-1H-indole-2-carboxylic acid] was tested, and the Ki (Mcl-1) was < 1 nM and the GI50 [1, 2] was 280 nM.
Compound `CC(=O)Nc1ccc2c(c1)c(N1C[C@@H](C)n3c(c(CCCOc4cc(C)c(Cl)c(C)c4)c4ccc(Cl)c(-c5c(C)nn(C)c5C)c43)C1=O)cn2C` [Example 257, N-[3-[(4R)-7-chloro-10-[3-(4-chloro-3,5-dimethyl-phenoxy)propyl]-4-methyl-1-oxo-6-(1,3,5-trimethylpyrazol-4-yl)-3,4-dihydropyrazino[1,2-a]indol-2-yl]-1-methyl-indol-5-yl]acetamide] has a Ki (Mcl-1) of 2.3 nM and a GI50 [1, 2] of 470 nM.
In the case of `Cc1cc(OCCCc2c3n(c4c(-c5c(C)nn(C)c5C)c(Cl)ccc24)[C@H](C)CN(c2cn(C)c4ccc(C#N)cc24)C3=O)cc(C)c1Cl` [Example 208, (R)-3-(7-Chloro-10-(3-(4-chloro-3,5-dimethylphenoxy)propyl)-4-methyl-1-oxo-6-(1,3,5-trimethyl-1H-pyrazol-4-yl)-3,4-dihydropyrazino[1,2-a]indol-2(1H)-yl)-1-methyl-1H-indole-5-carbonitrile], the Ki (Mcl-1) is reported as < 1 nM and the GI50 [1, 2] is reported as 1600 nM.
With `Cc1cc(OCCCc2c3n(c4c(-c5c(C)ncnc5C)c(Cl)ccc24)[C@H](C)CN(c2cn(C)c4ccc(C(N)=O)cc24)C3=O)cc(C)c1Cl` [Example 269, 3-[(4R)-7-chloro-10-[3-(4-chloro-3,5-dimethyl-phenoxy)propyl]-6-(4,6-dimethylpyrimidin-5-yl)-4-methyl-1-oxo-3,4-dihydropyrazino[1,2-a]indol-2-yl]-1-methyl-indole-5-carboxamide] the Ki (Mcl-1) was 7.4 nM and the GI50 [1, 2] was 760 nM.
For `Cc1cc(OCCCc2c3n(c4c(-c5c(C)nn(C)c5C)c(Cl)ccc24)[C@H](C)CN(c2cccc4c2c(C(=O)O)nn4C)C3=O)cc(C)c1Cl` [Example 126, 4-[(4R)-7-chloro-10-[3-(4-chloro-3,5-dimethyl-phenoxy)propyl]-4-methyl-1-oxo-6-(1,3,5-trimethylpyrazol-4-yl)-3,4-dihydropyrazino[1,2-a]indol-2-yl]-1-methyl-indazole-3-carboxylic acid], the Ki (Mcl-1) was < 1 nM and the GI50 [1, 3] was 5100 nM.
`CC(=O)N1CCN(S(=O)(=O)c2ccc3c(c2)c(N2C[C@@H](C)n4c(c(CCCOc5cc(C)c(Cl)c(C)c5)c5ccc(Cl)c(-c6c(C)nn(C)c6C)c54)C2=O)cn3C)CC1` [Example 278, (R)-2-(5-((4-acetylpiperazin-1-yl)sulfonyl)-1-methyl-1H-indol-3-yl)-7-chloro-10-(3-(4-chloro-3,5-dimethylphenoxy)propyl)-4-methyl-6-(1,3,5-trimethyl-1H-pyrazol-4-yl)-3,4-dihydropyrazino[1,2-a]indol-1(2H)-one] was tested, and the Ki (Mcl-1) was 5.4 nM and the GI50 [1, 2] was 1500 nM.
`Cc1cc(OCCCc2c3n(c4c(-c5c(C)nn(C)c5C)c(Cl)ccc24)[C@H](C)CN(c2c(C(=O)O)ccc4ccccc24)C3=O)cc(C)c1Cl` [Example 190, (R)-1-(7-Chloro-10-(3-(4-chloro-3,5-dimethylphenoxy)propyl)-4-methyl-1-oxo-6-(1,3,5-trimethyl-1H-pyrazol-4-yl)-3,4-dihydropyrazino[1,2-a]indol-2(1H)-yl)-2-naphthoic acid] was tested, and the Ki (Mcl-1) was < 1 nM and the GI50 [1, 2] was 2200 nM.
Compound `Cc1cc(OCCCc2c3n(c4c(-c5c(C)nn(C)c5C)c(Cl)ccc24)[C@H](C)CN(c2cc(C(=O)O)cc4c2cc(C(F)(F)F)n4C)C3=O)cc(C)c1Cl` [Example 211, 4-[(4R)-7-chloro-10-[3-(4-chloro-3,5-dimethyl-phenoxy)propyl]-4-methyl-1-oxo-6-(1,3,5-trimethylpyrazol-4-yl)-3,4-dihydropyrazino[1,2-a]indol-2-yl]-1-methyl-2-(trifluoromethyl)indole-6-carboxylic acid] has a Ki (Mcl-1) of 3.1 nM and a GI50 [1, 2] of 11000 nM.
In the case of `CNS(=O)(=O)c1ccc2c(c1)c(N1C[C@@H](C)n3c(c(CCCOc4cc(C)c(Cl)c(C)c4)c4ccc(Cl)c(-c5c(C)nn(C)c5C)c43)C1=O)cn2C` [Example 267, (R)-3-(7-chloro-10-(3-(4-chloro-3,5-dimethylphenoxy)propyl)-4-methyl-1-oxo-6-(1,3,5-trimethyl-1H-pyrazol-4-yl)-3,4-dihydropyrazino[1,2-a]indol-2(1H)-yl)-N,1-dimethyl-1H-indole-5-sulfonamide], the Ki (Mcl-1) is reported as 4.7 nM and the GI50 [1, 2] is reported as 3100 nM.
Compound `Cc1cc(OCCCc2c3n(c4c(-c5c(C)nn(C)c5C)c(Cl)ccc24)[C@H](C)CN(c2cn(CCN(C)C)c4cc(C(=O)O)ccc24)C3=O)cc(C)c1Cl` [Example 340, (R)-3-(7-Chloro-10-(3-(4-chloro-3,5-dimethylphenoxy)propyl)-4-methyl-1-oxo-6-(1,3,5-trimethyl-1H-pyrazol-4-yl)-3,4-dihydropyrazino[1,2-a]indol-2(1H)-yl)-1-(2-(dimethylamino)ethyl)-1H-indole-6-carboxylic acid] has a Ki (Mcl-1) of 4.4 nM and a GI50 [1, 2] of 1800 nM.
Work on `Cc1cc(OCCCc2c3n(c4c(-c5c(C)nn(CCN6CCCC6)c5C)c(Cl)ccc24)[C@H](C)CN(c2cn(C)c4cc(C(=O)O)ccc24)C3=O)cc(C)c1Cl` [Example 306, (R)-3-(7-chloro-10-(3-(4-chloro-3,5-dimethylphenoxy)propyl)-6-(3,5-dimethyl-1-(2-(pyrrolidin-1-yl)ethyl)-1H-pyrazol-4-yl)-4-methyl-1-oxo-3,4-dihydropyrazino[1,2-a]indol-2(1H)-yl)-1-methyl-1H-indole-6-carboxylic acid] yielded a Ki (Mcl-1) of 1.3 nM and a GI50 [1, 2] of 600 nM.
`Cc1cc(OCCCc2c3n(c4c(-c5c(C)nn(C)c5C)c(Cl)ccc24)[C@H](C)CN(c2ccc(F)c4c(C(=O)O)cn(C)c24)C3=O)cc(C)c1Cl` [Example 447, (R)-7-(7-Chloro-10-(3-(4-chloro-3,5-dimethylphenoxy)propyl)-4-methyl-1-oxo-6-(1,3,5-trimethyl-1H-pyrazol-4-yl)-3,4-dihydropyrazino[1,2-a]indol-2(1H)-yl)-4-fluoro-1-methyl-1H-indole-3-carboxylic acid] was tested, and the Ki (Mcl-1) was < 1 nM and the GI50 [1, 2] was 340 nM.
`Cc1cc(OCCCc2c3n(c4c(-c5c(C)nn(C)c5C)c(Cl)ccc24)[C@H](C)CN(c2cccc4ccc(C(=O)O)cc24)C3=O)cc(C)c1Cl` [Example 368, (P, R)-8-(7-Chloro-10-(3-(4-chloro-3,5-dimethylphenoxy)propyl)-4-methyl-1-oxo-6-(1,3,5-trimethyl-1H-pyrazol-4-yl)-3,4-dihydropyrazino[1,2-a]indol-2(1H)-yl)-2-naphthoic acid] was tested, and the Ki (Mcl-1) was 1.4 nM and the GI50 ([1]; H929 cells, 72 h, Cell TiterGlo, 10% FBS, read-out: GI50 on cellular proliferation of H929 human cancer cell lines) was 620 nM.
With `Cc1cc(OCCCc2c3n(c4c(-c5c(C)nn(C)c5C)c(Cl)ccc24)[C@H](C)CN(c2cccc4cc(C(=O)O)n(Cc5cscn5)c24)C3=O)cc(C)c1Cl` [Example 304, 7-[(4R)-7-chloro-10-[3-(4-chloro-3,5-dimethyl-phenoxy)propyl]-4-methyl-1-oxo-6-(1,3,5-trimethylpyrazol-4-yl)-3,4-dihydropyrazino[1,2-a]indol-2-yl]-1-(thiazol-4-ylmethyl)indole-2-carboxylic acid] the Ki (Mcl-1) was < 1 nM and the GI50 [1, 2] was 370 nM.
`Cc1cc(OCCCc2c3n(c4c(-c5c(C)ncnc5C)c(Cl)ccc24)[C@H](C)CN(c2cccc4c2c(C(=O)O)cn4C)C3=O)cc(C)c1Cl` [Example 252, 4-[(4R)-7-chloro-10-[3-(4-chloro-3,5-dimethyl-phenoxy)propyl]-6-(4,6-dimethylpyrimidin-5-yl)-4-methyl-1-oxo-3,4-dihydropyrazino[1,2-a]indol-2-yl]-1-methyl-indole-3-carboxylic acid] showed a Ki (Mcl-1) of 1.3 nM and a GI50 [1, 2] of 2000 nM.
`Cc1cc(OCCCc2c3n(c4c(-c5c(C)nn(C)c5C)c(Cl)ccc24)[C@H](C)CN(c2cn(C)c4cc(Cl)c(C(=O)O)cc24)C3=O)cc(C)c1Cl` [Example 365, (R)-6-Chloro-3-(7-chloro-10-(3-(4-chloro-3,5-dimethylphenoxy)propyl)-4-methyl-1-oxo-6-(1,3,5-trimethyl-1H-pyrazol-4-yl)-3,4-dihydropyrazino[1,2-a]indol-2(1H)-yl)-1-methyl-1H-indole-5-carboxylic acid] showed a Ki (Mcl-1) of 1.7 nM and a GI50 [1, 2] of 2000 nM.
In the case of `Cc1cc(OCCCc2c3n(c4c(-c5c(C)nn(C)c5C)c(Cl)ccc24)[C@H](C)CN(c2cccc4nn(C)c(C(=O)O)c24)C3=O)cc(C)c1Cl` [Example 133, 4-[(4R)-7-chloro-10-[3-(4-chloro-3,5-dimethyl-phenoxy)propyl]-4-methyl-1-oxo-6-(1,3,5-trimethylpyrazol-4-yl)-3,4-dihydropyrazino[1,2-a]indol-2-yl]-2-methyl-indazole-3-carboxylic acid], the Ki (Mcl-1) is reported as < 1 nM and the GI50 [1, 3] is reported as 1400 nM.
